Data reported in patent US9732063B2, “Kinase inhibitors” (RESPIVERT LIMITED, priority 2012, dated 2017).

Tests used:
PBMCs [1] = assay: LPS-induced TNFα/IL-8 release in PBMC cells; format: cell-based; settings: Homo sapiens, read-out: IC50 Values for Inhibition of Cytokine Release PBMCs IL-8
Method: Peripheral blood mononuclear cells (PBMCs) from healthy subjects are separated from whole blood using a density gradient (Lymphoprep, Axis-Shield Healthcare). The PBMCs are seeded in 96 well plates and treated with compounds at the desired concentration for 2 hours before addition of 1 ng/mL LPS (Escherichia Coli O111:B4 from Sigma Aldrich) for 24 hours under normal tissue culture conditions (37° C., 5% CO2). The supernatant is harvested for determination of IL-8 and TN Fa concentrations by sandwich ELISA (Duo-set, R&D systems) and read on the fluorescence microplate reader (Varioskan® Flash, ThermoFisher Scientific).

c-Src = c-Src (Homo sapiens (Human), UniProt P12931); assay: c-Src enzyme inhibition (Z-LYTE FRET); format: biochemical
Sequence of c-Src (P12931 whole entry, looked up): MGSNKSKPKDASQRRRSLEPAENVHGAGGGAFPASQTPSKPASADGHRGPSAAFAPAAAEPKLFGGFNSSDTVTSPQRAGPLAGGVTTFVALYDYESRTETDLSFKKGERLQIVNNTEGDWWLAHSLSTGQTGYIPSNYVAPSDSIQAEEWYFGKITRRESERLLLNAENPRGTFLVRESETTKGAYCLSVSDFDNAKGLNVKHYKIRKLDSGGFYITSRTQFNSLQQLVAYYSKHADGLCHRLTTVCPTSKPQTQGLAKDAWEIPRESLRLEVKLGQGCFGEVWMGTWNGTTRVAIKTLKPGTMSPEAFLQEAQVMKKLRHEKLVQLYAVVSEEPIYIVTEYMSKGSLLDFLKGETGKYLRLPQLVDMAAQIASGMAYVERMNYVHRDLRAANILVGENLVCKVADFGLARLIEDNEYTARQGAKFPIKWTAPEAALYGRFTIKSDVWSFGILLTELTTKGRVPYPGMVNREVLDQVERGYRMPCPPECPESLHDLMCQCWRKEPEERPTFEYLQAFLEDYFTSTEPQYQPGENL
Method: (§1) The enzyme inhibitory activities of compounds disclosed herein are determined by FRET using synthetic peptides labelled with both donor and acceptor fluorophores (Z-LYTE, Invitrogen Ltd., Paisley, UK).
(§2) The relevant enzyme (3000 ng/mL or 2000 ng/mL respectively, 2.5 μL) is incubated with the test compound (either 4 μg/mL, 0.4 μg/mL, 0.04 μg/mL, or 0.004 μg/mL, 2.5 μL each) for 2 hr at RT. The FRET peptides (8 μM, 2.5 μL), and appropriate ATP solutions (2.5 μL, 800 μM for c-Src, and 60 μM ATP for Syk) are then added to the enzymes/compound mixtures and incubated for 1 hr. Development reagent (protease, 5 μL) is added for 1 hr prior to detection in a fluorescence microplate reader (Varioskan® Flash, ThermoFisher Scientific).
(§3) In all cases, the site-specific protease cleaves non-phosphorylated peptide only and eliminates the FRET signal. Phosphorylation levels of each reaction are calculated using the ratio of coumarin emission (donor) over fluorescein emission (acceptor), for which high ratios indicate high phosphorylation and low ratios indicate low phosphorylation levels.

Syk = Syk (Homo sapiens (Human), UniProt P43405); assay: Syk enzyme inhibition (Z-LYTE FRET); format: biochemical
Method: as §1, §2, §3

p38 MAPKα = p38 MAPKα (Homo sapiens (Human), UniProt Q16539); assay: p38 MAPKα enzyme inhibition (Z-LYTE FRET, Method 2); format: biochemical
Sequence of p38 MAPKα (Q16539 whole entry): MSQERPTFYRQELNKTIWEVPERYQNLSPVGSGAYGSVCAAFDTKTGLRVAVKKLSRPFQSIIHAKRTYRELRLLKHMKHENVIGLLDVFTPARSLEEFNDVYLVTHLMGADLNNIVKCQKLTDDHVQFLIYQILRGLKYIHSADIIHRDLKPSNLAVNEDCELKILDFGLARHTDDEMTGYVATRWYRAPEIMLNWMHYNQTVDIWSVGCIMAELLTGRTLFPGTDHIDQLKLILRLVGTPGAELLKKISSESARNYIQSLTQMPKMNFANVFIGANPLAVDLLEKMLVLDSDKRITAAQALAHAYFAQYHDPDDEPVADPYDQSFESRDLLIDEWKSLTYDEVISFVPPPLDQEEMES
Method: as §1
The inhibitory activities of test compounds against the p38 MAPKα isoform (MAPK14: Invitrogen), are evaluated indirectly by determining the level of activation/phosphorylation of the down-stream molecule, MAPKAP-K2. The p38 MAPKα protein (80 ng/mL, 2.5 μL) is mixed with the test compound (2.5 μL of either 4 μg/mL, 0.4 μg/mL, 0.04 μg/mL or 0.004 μg/mL) for 2 hr at RT. […] The mixture is incubated for 1 hr at RT. Development reagent (protease, 5 μL) is added for 1 hr prior to detection in a fluorescence microplate reader (Varioskan® Flash, ThermoFisher Scientific).
as §3

PBMCs [2] = assay: IL-2 and IFN gamma release in CD3/CD28 stimulated PBMC cells; format: cell-based; settings: Homo sapiens
Method: PBMCs from healthy subjects are separated from whole blood using a density gradient (Lymphoprep, Axis-Shield Healthcare). Cells are added to a 96 well plate pre-coated with a mixture of CD3/CD38 monoclonal antibodies (0.3 μg/mL eBioscience and 3 μg/mL BD Pharmingen respectively). Compound at the desired concentration is then added to the wells and the plate left for 3 days under normal tissue culture conditions. Supernatants are harvested and IL-2 and IFN gamma release determined by Sandwich ELISA (Duo-set, R&D System). The IC50 is determined from the dose response curve.

GSK3α = GSK3α (Homo sapiens (Human), UniProt P49840); assay: GSK 3α enzyme inhibition (Z-LYTE FRET, Method 2); format: biochemical
Sequence of GSK3α (P49840 whole entry): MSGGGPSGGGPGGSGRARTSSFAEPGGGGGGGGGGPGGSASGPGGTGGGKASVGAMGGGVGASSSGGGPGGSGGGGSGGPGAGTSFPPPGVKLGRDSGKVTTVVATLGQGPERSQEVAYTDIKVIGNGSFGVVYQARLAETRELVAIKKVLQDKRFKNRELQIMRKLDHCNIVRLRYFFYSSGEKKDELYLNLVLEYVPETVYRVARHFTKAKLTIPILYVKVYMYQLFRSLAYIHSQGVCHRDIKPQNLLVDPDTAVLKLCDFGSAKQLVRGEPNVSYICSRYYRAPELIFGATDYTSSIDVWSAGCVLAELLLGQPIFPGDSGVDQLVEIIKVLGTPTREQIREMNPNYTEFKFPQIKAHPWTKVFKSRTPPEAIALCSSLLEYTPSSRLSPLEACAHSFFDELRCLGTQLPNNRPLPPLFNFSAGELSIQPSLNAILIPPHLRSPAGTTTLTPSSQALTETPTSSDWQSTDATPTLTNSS
Method: as §1
The inhibitory activities of compounds of the invention against the GSK 3α enzyme isoform (Invitrogen), are evaluated by determining the level of activation/phosphorylation of the target peptide. The GSK3-α protein (500 ng/mL, 2.5 μL) is mixed with the test compound (2.5 μL at either 4 μg/mL, 0.4 μg/mL, 0.04 μg/mL, or 0.004 μg/mL) for 2 hr at RT. The FRET peptide (8 μM, 2.5 μL), which is a phosphorylation target for GSK3α, and ATP (40 μM, 2.5 μL) are then added to the enzyme/compound mixture and the resulting mixture incubated for 1 hr. Development reagent (protease, 5 μL) is added for 1 hr prior to detection in a fluorescence microplate reader (Varioskan® Flash, ThermoFisher Scientific).
as §3

[3] = read-out: IC50 Values for Inhibition of Cytokine Release PBMCs IL-2
[4] = read-out: IC50 Values for Inhibition of Cytokine Release PBMCs IFNγ

SMILES	IC50 (PBMCs [1])	IC50 (c-Src)	IC50 (Syk)	IC50 (p38 MAPKα)	IC50 (PBMCs [2]; [3])	IC50 (GSK3α)	IC50 (PBMCs [2]; [4])
C#Cc1cccc(Nc2nccc(Oc3ccc(NC(=O)Nc4cc(C(C)C)nn4-c4ccc(C)cc4)c4ccccc34)n2)c1 [Example 10, 1-(4-((2-((3-Ethynylphenyl)amino)pyrimidin-4-yl)oxy)naphthalen-1-yl)-3-(3-isopropyl-1-(p-tolyl)-1H-pyrazol-5-yl)urea]	7.9 nM	137 nM	807 nM				
C#Cc1cc(Nc2nccc(Oc3ccc(NC(=O)Nc4cc(C(C)C)nn4-c4ccc(C)cc4)c4ccccc34)n2)cc(OC)c1 [Example 15, 1-(4-((2-((3-Ethynyl-5-methoxyphenyl)amino)pyrimidin-4-yl)oxy)naphthalen-1-yl)-3-(3-isopropyl-1-(p-tolyl)-1H-pyrazol-5-yl)urea]	6.1 nM	> 1600 nM	> 1600 nM				
COc1cc(Nc2nccc(Oc3ccc(NC(=O)Nc4cc(C(C)C)nn4-c4ccc(C)cc4)c4ccccc34)n2)cc(OCCN2CCOCC2)c1 [Example 17, 1-(3-Isopropyl-1-(P-tolyl)-1H-pyrazol-5-yl)-3-(4-((2-((3-methoxy-5-(2-morpholinoethoxy)-phenyl)amino)pyrimidin-4-yl)oxy)naphthalen-1-yl)urea]	1.1 nM	> 383 nM	> 537 nM	> 280 nM	20.3 nM	2670 nM	
Cc1ccc(-n2nc(C(C)C)cc2NC(=O)Nc2ccc(Oc3ccnc(Nc4cccc(OCCOCCOCCO)c4)n3)c3ccccc23)cc1 [Example 19, 1-(4-((2-((3-(2-(2-(2-Hydroxyethoxy)ethoxy)ethoxy)phenyl)amino)pyrimidin-4-yl)oxy)-naphthalen-1-yl)-3-(3-isopropyl-1-(p-tolyl)-1H-pyrazol-5-yl)urea]	1.2 nM	5 nM	20 nM			1070 nM	
COc1cc(Nc2nccc(Oc3ccc(NC(=O)Nc4cc(C(C)C)nn4-c4ccc(C)cc4)c(Cl)c3Cl)n2)cc(S(=O)(=O)C2CC2)c1 [Example 23, 1-(2,3-Dichloro-4-((2-((3-(cyclopropylsulfonyl)-5-methoxyphenyl)amino)pyrimidin-4-yl)-oxy)phenyl)-3-(3-isopropyl-1-(p-tolyl)-1H-pyrazol-5-yl)urea]	2.6 nM	53 nM	289 nM			1400 nM	
COCCOCCOCCOCCOc1cc(Nc2nccc(Oc3ccc(NC(=O)Nc4cc(C(C)C)nn4-c4ccc(C)cc4)c4ccccc34)n2)cc(OC)c1 [Example 29, 1-(4-((2-((3-(2,5,8,11-Tetraoxatridecan-13-yloxy)-5-methoxyphenyl)amino)pyrimidin-4-yl)oxy)naphthalen-1-yl)-3-(3-isopropyl-1-(p-tolyl)-1H-pyrazol-5-yl)urea]	2.5 nM	6 nM	16 nM	30 nM	74.1 nM	> 10000 nM	6.6 nM
COCCOCCOCCOCCOCCOCCOCCOc1cc(Nc2nccc(Oc3ccc(NC(=O)Nc4cc(C(C)C)nn4-c4ccc(C)cc4)c4ccccc34)n2)cc(OC)c1 [Example 32, 1-(4-((2-((3-(2,5,8,11,14,17,20-Heptaoxadocosan-22-yloxy)-5-methoxyphenyl)amino)-pyrimidin-4-yl)oxy)naphthalen-1-yl)-3-(3-isopropyl-1-(p-tolyl)-1H-pyrazol-5-yl)urea]	1.4 nM	3 nM	7 nM	11 nM		4690 nM	
COCCOCCOCCOc1cc(Nc2nccc(Oc3ccc(NC(=O)Nc4cc(C(C)C)nn4-c4ccc(C)cc4)c(Cl)c3Cl)n2)cc(OC)c1 [Example 35, 1-(2,3-Dichloro-4-((2-((3-methoxy-5-(2-(2-(2-methoxyethoxy)ethoxy)ethoxy)phenyl)-amino)pyrimidin-4-yl)oxy)phenyl)-3-(3-isopropyl-1-(p-tolyl)-1H-pyrazol-5-yl)urea]	2.1 nM	15 nM		487 nM	9.8 nM	> 10000 nM	
COCCOCCOCCOc1cc(Nc2nccc(Oc3ccc(NC(=O)Nc4cc(C(F)(F)C(F)(F)F)nn4-c4ccc(C)cc4)c4ccccc34)n2)cc(OC)c1 [Example 39, 1-(4-((2-((3-Methoxy-5-(2-(2-(2-methoxyethoxyl)ethoxy)ethoxy)phenyl)amino)pyrimidin-4-yl)oxy)naphthalen-1-yl)-3-(3-(perfluoroethyl)-1-(p-tolyl)-1H-pyrazol-5-yl)urea]	5.5 nM			433 nM		9540 nM	
COc1cc(Nc2nccc(Oc3ccc(NC(=O)Nc4cc(C(C)(C)C)nn4-c4ccc(C)cc4)c4ccccc34)n2)cc(SCCN2CCOCC2)c1 [Example 41, 1-(3-(tert-Butyl)-1-(p-tolyl)-1H-pyrazol-5-yl)-3-(4-((2-((3-methoxy-5-((2-morpholinoethyl)-thio)phenyl)amino)pyrimidin-4-yl)oxy)naphthalen-1-yl)urea]	4.8 nM			224 nM	80.3 nM	2820 nM	2.5 nM
COc1cc(Nc2nccc(Oc3ccc(NC(=O)Nc4cc(C(C)(C)C)nn4-c4ccc(C)cc4)c4ccccc34)n2)cc(SCCCO)c1 [Example 48, 1-(3-(tert-Butyl)-1-(p-tolyl)-1H-pyrazol-5-yl)-3-(4-((2-((3-((3-Hydroxypropyl)thio)-5-methoxyphenyl)amino)pyrimidin-4-yl)oxy)naphthalen-1-yl)urea]	3 nM		37 nM	195 nM	49.2 nM	2050 nM	
COc1cc(Nc2nccc(Oc3ccc(NC(=O)Nc4cc(C(C)(C)C)nn4-c4ccc(C)cc4)c4ccccc34)n2)cc(OCCOCCOCCN(C)C)c1 [Example 57, 1-(3-(tert-Butyl)-1-(p-tolyl)-1H-pyrazol-5-yl)-3-(4-((2-((3-(2-(2-(2-(dimethylamino)ethoxy)ethoxy)ethoxy)-5-methoxyphenyl)amino)pyrimidin-4-yl)oxy)naphthalen-1-yl)urea]	0.9 nM	7 nM	8 nM		14.6 nM	1940 nM	1.4 nM
COCCOCCOc1cc(Nc2nccc(Oc3ccc(NC(=O)Nc4cc(C(C)(C)C)nn4-c4ccc(C)cc4)c4ccccc34)n2)cc(OC)c1 [Example 60, 1-(3-(tert-Butyl)-1-(p-tolyl)-1H-pyrazol-5-yl)-3-(4-((2-((3-methoxy-5-(2-(2-methoxyethoxy)ethoxy)phenyl)amino)pyrimidin-4-yl)oxy)naphthalen-1-yl)urea]	2.2 nM	17 nM	30 nM		72.6 nM	> 10000 nM	3 nM
COCCOCCOCCOc1cc(Nc2nccc(Oc3ccc(NC(=O)Nc4cc(C(C)(C)C)nn4-c4ccc(C)cc4)c4ccccc34)n2)cc(OC)c1Cl [Example 72, 1-(3-(tert-Butyl)-1-(p-tolyl)-1H-pyrazol-5-yl)-3-(4-((2-((4-chloro-3-methoxy-5-(2-(2-(2-methoxyethoxyl)ethoxy)ethoxy)phenyl)amino)pyrimidin-4-yl)oxy)naphthalen-1-yl)urea]			75 nM	377 nM	35.1 nM	> 10000 nM	3.3 nM
